In ChEMBL document CHEMBL1153678, “Bromobenzofurans : a new class of potent, non-peptide antagonists of angiotensin II” (Bioorg Med Chem Lett, 1991):

Biological target: T1, Type-1 angiotensin II receptor (Oryctolagus cuniculus) (UniProt P34976)
T1 sequence (whole entry): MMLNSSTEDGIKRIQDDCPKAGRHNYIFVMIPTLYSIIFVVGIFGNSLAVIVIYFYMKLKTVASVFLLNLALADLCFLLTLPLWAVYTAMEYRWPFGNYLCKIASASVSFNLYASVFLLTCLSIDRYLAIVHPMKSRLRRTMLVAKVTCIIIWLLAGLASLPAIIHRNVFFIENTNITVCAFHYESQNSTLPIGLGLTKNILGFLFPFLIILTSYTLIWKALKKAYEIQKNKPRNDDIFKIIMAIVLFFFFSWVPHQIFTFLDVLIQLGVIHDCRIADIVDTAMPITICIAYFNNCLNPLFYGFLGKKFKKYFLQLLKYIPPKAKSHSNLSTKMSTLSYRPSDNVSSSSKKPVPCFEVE
Test: Angiotensin II receptor, type 1 antagonist activity in rabbit isolated thoracic aorta
Type: functional, tissue-based

Q: For `CCCCc1nc(Cl)c(CO)n1Cc1ccc(-c2ccccc2C(=O)O)cc1`, which pKB is on record?
A: 6.9

Q: How did the pKB turn out when `CCCCc1nc(Cl)c(C(=O)O)n1Cc1ccc(-c2ccccc2-c2nn[nH]n2)cc1` was run?
A: 10.6

Q: How did the pKB turn out when `CCCCc1nc(Cl)c(CO)n1Cc1ccc(-c2ccccc2-c2nnn[nH]2)cc1` was run?
A: 8.4
